Experiments:
Format in all cases: cell-based
[1] = system: Staph. aureus; experiment: Inhibition test (microdilution assay), inhibition of bacterial growth; conditions: Staphylococcus aureus; for inhibition at 100 µM: c = 100 μM
Method: (§1) Inhibition Test Culture media used: Müller-Hinton broth Caso agar plates Test method: Microdilution assay The test organisms are cultured overnight in […]-Honton broth at 35° C. +/-2° C. The suspension of organisms is centrifuged (5000 rev./min, 4° C.); the pellet is resuspended in fresh medium and incubated for a further 2 h. The pellet is then resuspended in 0.9% NaCl solution and the number of cells is adjusted to about 10^8 CFU/ml using standard curves. The resulting suspension is then diluted with Müller-Hinton broth to about 10^4 CFU/ml(=inoculum). Starting from the inoculum, a determination of the number of organisms is carried out by spiralling out (2×0.1 ml) a suitable dilution stage onto CASO agar plates. Test procedure: Specific concentrations of the potential inhibitors are dispensed into a 96-well microtitre assay plate, wells A1-H1remaining empty. The wells of the microtitre assay plates are inoculated with the adjusted suspension of organisms. Wells A1-H1serve as growth controls. Immediately after inoculation and after incubation of the plates for 24 h and 48 h, they are measured in a plate reader (Biotek EL 311) at 550 nm. From the crude data, the inhibition of bacterial and fungal growth is calculated in percent.

[2] = system: Bac. subtilis; experiment: as above; conditions: Bacillus subtilis; for inhibition at 100 µM: c = 100 μM
Method: as §1

[3] = system: Strept. pneumoniae; experiment: as above; conditions: Streptococcus pneumoniae; c = 100 μM
Method: as §1

[4] = system: A549; experiment: Assay 1: cell growth by acid phosphatase activity; conditions: Homo sapiens; for GI50: A549, acid phosphatase, substance 0.1-100 μM, 48 h and 96 h, read-out: Cell proliferation GI50: A549; for inhibition at up to 100 µM: A549, printed beside GI50 >100 μM, concentration not given, read-out: Cell proliferation: A549, % inhibition
Method: (§2) Assay 1 Measurement of cell growth by determination of the activity of the intracellular enzyme acid phosphatase. The added substrate p-nitrophenyl phosphate is converted by acid phosphatase into p-nitrophenol, which absorbs light at 405 nm, the intensity of the yellow coloration being proportional to the number of cells. Incubation of the cell lines HEPG-2 and A549 together with the substance (0.1-100 μM) was carried out for 48 h and 96 h at 37° C. and 5% CO2.

[5] = system: Candida albicans; experiment: Inhibition test (microdilution assay), inhibition of fungal growth; conditions: read-out: Inhibition of bacterial growth: Candida albicans; for inhibition at 100 µM: c = 100 μM
Method: as §1

[6] = system: HepG2; experiment: Assay 1: cell growth by acid phosphatase activity; conditions: Homo sapiens; for GI50: HepG2, acid phosphatase, substance 0.1-100 μM, 48 h and 96 h, read-out: Cell proliferation GI50: HepG2; for inhibition at up to 100 µM: HepG2, printed beside GI50 >100 μM, concentration not given, read-out: Cell proliferation: HepG2, % inhibition
Method: as §2

Structure (SMILES)	inhibition at 100 µM [1] [%]	inhibition at 100 µM [2] [%]	inhibition at 100 µM [3] [%]	GI50 [4] [µM]	inhibition at up to 100 µM [4] [%]	inhibition at 100 µM [5] [%]	GI50 [6] [µM]	inhibition at up to 100 µM [6] [%]	inhibition at 50 µM ([1]; c = 50 μM) [%]	inhibition at 50 µM ([2]; c = 50 μM) [%]	inhibition at 50 µM ([5]; c = 50 μM) [%]	inhibition at 12.5 µM ([1]; c = 12.5 μM) [%]	inhibition at 25 µM ([2]; c = 25 μM) [%]	inhibition at 200 µM ([5]; c = 200 μM) [%]
c1ccc(COc2cc3c(-c4cncn4C4CCCc5ccccc54)c[nH]c3cn2)cc1 (stereo not shown) [Example 1]	100	100	100	> 100	22	0	–	–	–	–	–	–	–	–
Cc1[nH]c2ccccc2c1-c1cncn1C1CCN(Cc2ccccc2)CC1 [Example 2]	100	100	90	> 100	12	60	> 100	1	–	–	–	–	–	–
c1ccc(CN2CCC(n3cncc3-c3c[nH]c4ccccc34)CC2)cc1 [Example 3]	100	100	80	> 100	26	60	> 100	48	–	–	–	–	–	–
c1ccc(COc2cc3c(-c4cncn4C4CCN(Cc5ccccc5)CC4)c[nH]c3cn2)cc1 [Example 4]	100	100	90	> 100	41	70	> 100	65	–	–	–	–	–	–
CC(C)CCn1cncc1-c1c[nH]c2cnc(OCc3ccccc3)cc12 [Example 5]	100	100	90	> 100	33	0	> 100	38	–	–	–	–	–	–
c1ccc(COc2cc3c(-c4cncn4CCc4c[nH]c5ccccc45)c[nH]c3cn2)cc1 [Example 6]	85	10	10	> 100	19	0	> 100	17	–	–	–	–	–	–
Cc1[nH]c2ccccc2c1-c1cncn1C1CCCc2ccccc21 (stereo not shown) [Example 7]	40	76	0	> 100	0	0	> 100	0	–	–	–	–	–	–
Cc1[nH]c2ccccc2c1-c1cncn1CCNC(C)C [Example 8]	82	39	0	> 100	10	0	> 100	0	–	–	–	–	–	–
COc1ccc2[nH]cc(-c3cncn3CCc3ccc(O)cc3)c2c1 [Example 9]	25	38	85	> 100	31	0	> 100	14	–	–	–	–	–	–
Fc1ccc(-c2ncn(C3CCCc4ccccc43)c2-c2c[nH]c3cnc(OCc4ccccc4)cc23)cc1 (stereo not shown) [Example 11]	–	–	–	–	–	–	–	–	60	80	100	–	–	–
c1ccc(COc2cc3c(-c4cncn4C4CCc5ccccc54)c[nH]c3cn2)cc1 (stereo not shown) [Example 12]	–	–	–	–	–	60	–	–	–	–	–	80	100	–
O[C@@H]1Cc2ccccc2C1n1cncc1-c1c[nH]c2cnc(OCc3ccccc3)cc12 (stereo partly shown) [Example 13]	90	90	–	–	–	–	–	–	–	–	–	–	–	90
